According to ChEMBL document CHEMBL4229536, “In vitro and in vivo pharmacokinetic and pharmacodynamic study of MBRI-001, a deuterium-substituted plinabulin derivative as a potent anti-cancer agent” (Bioorg Med Chem, 2018):

Assays:
[1] = Drug uptake in Wistar rat spleen at 6 mg/kg, iv measured after 0.5 hrs; type: ADME, organism-based; settings: in vivo
[2] = AUClast in Wistar rat at 4 mg/kg, iv; type: ADME, organism-based; set-up: dose 4 mg/kg, route intravenous, time 0 - last; settings: in vivo
[3] = Stability in rat liver microsomes at 50 uM after 60 mins in presence of NADPH by LC-MS/MS analysis; type: ADME, microsome; settings: read-out: Stability
[4] = Drug excretion in Wistar rat feces at 4 mg/kg, iv measured after 36 hrs; type: ADME, organism-based; settings: faeces, read-out: Drug excretion
[5] = Apparent volume of distribution in Wistar rat at 4 mg/kg, iv; type: ADME, organism-based; settings: in vivo, read-out: Vz
[6] = target: Cytochrome P450 3A4 (Homo sapiens, UniProt P08684); assay: Inhibition of CYP3A4 in human liver microsomes preincubated for 10 mins followed by NADPH addition measured after 10 mins by LC-MS/MS analysis; type: ADME
[7] = Drug uptake in Wistar rat heart at 6 mg/kg, iv measured after 4 hrs; type: ADME, organism-based; settings: in vivo
[8] = test system: Mus musculus; assay: Toxicity in nude mouse xenografted with human NCI-H460 cells assessed as body weight at 3 mg/kg, iv administered once in every 2 days for 14 consecutive days cotreated with 25 mg/kg gefitinib once daily for 14 consecutive days (reference value: 20.6 +/- 1.5 g); type: organism-based; settings: in vivo, 48 h
[9] = Stability in rat liver microsomes at 50 uM after 40 mins in presence of NADPH by LC-MS/MS analysis; type: ADME, microsome; settings: read-out: Stability
[10] = AUC (0 to infinity) in Wistar rat at 4 mg/kg, iv; type: ADME, organism-based; set-up: dose 4 mg/kg, time infinity, route intravenous; settings: in vivo
[11] = Drug uptake in Wistar rat brain at 6 mg/kg, iv measured after 0.5 hrs; type: ADME, organism-based; settings: in vivo
[12] = Drug uptake in Wistar rat spleen at 6 mg/kg, iv measured after 12 hrs; type: ADME, organism-based; settings: in vivo
[13] = Drug uptake in Wistar rat kidney at 6 mg/kg, iv measured after 8 hrs; type: ADME, organism-based; settings: in vivo
[14] = test system: NCI-H460; assay: Antitumor activity against human NCI-H460 cells xenografted in nude mouse assessed as inhibition of tumor volume at 6 mg/kg, iv administered once in every 2 days for 14 consecutive days relative to control; type: functional; settings: 48 h
[15] = Drug uptake in Wistar rat kidney at 6 mg/kg, iv measured after 4 hrs; type: ADME, organism-based; settings: in vivo
[16] = test system: Rattus norvegicus; assay: AUC (0 to infinity) in Wistar rat at 8 mg/kg, iv; type: ADME, organism-based; set-up: dose 8 mg/kg, route intravenous, time infinity; settings: in vivo
[17] = Toxicity in Balb/c mouse administered iv three times in a day every 2 days for 15 consecutive days; type: organism-based; settings: in vivo
[18] = Stability in rat liver microsomes at 50 uM after 10 mins in presence of NADPH by LC-MS/MS analysis; type: ADME, microsome; settings: liver microsomes, read-out: Stability
[19] = Stability in rat liver microsomes at 50 uM after 120 mins in presence of NADPH by LC-MS/MS analysis; type: ADME, microsome; settings: read-out: Stability
[20] = test system: NCI-H460; assay: Antitumor activity against human NCI-H460 cells xenografted in nude mouse assessed as inhibition of tumor volume at 3 mg/kg, iv administered once in every 2 days for 14 consecutive days cotreated with 25 mg/kg gefitinib once daily for 14 consecutive days relative to control; type: functional
[21] = target: T1, Cytochrome P450 1A2 (Homo sapiens, UniProt P05177); assay: Inhibition of CYP1A2 in human liver microsomes preincubated for 10 mins followed by NADPH addition measured after 10 mins by LC-MS/MS analysis; type: ADME
T1 sequence (P05177 whole entry): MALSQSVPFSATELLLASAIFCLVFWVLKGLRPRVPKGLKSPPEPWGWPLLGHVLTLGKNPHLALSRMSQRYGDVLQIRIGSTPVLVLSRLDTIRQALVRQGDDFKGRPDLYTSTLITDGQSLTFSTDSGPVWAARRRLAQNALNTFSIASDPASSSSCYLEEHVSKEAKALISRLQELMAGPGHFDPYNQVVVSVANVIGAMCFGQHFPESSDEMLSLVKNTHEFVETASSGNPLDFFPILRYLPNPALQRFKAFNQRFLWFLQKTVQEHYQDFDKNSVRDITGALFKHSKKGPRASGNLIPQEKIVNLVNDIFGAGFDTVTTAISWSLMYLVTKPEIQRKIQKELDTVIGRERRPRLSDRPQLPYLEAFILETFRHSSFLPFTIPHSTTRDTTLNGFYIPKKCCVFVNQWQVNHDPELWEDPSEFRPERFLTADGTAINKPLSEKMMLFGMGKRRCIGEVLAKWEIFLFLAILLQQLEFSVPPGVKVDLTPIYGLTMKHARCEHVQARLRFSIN

[22] = Drug uptake in Wistar rat heart at 6 mg/kg, iv measured after 1 hr; type: ADME, organism-based; settings: in vivo
[23] = Drug excretion in Wistar rat feces at 4 mg/kg, iv measured after 72 hrs; type: ADME, organism-based; settings: faeces, read-out: Drug excretion
[24] = Drug uptake in Wistar rat large intestine at 6 mg/kg, iv measured after 8 hrs; type: ADME, organism-based; settings: in vivo
[25] = Drug uptake in Wistar rat kidney at 6 mg/kg, iv measured after 12 hrs; type: ADME, organism-based; settings: in vivo
[26] = test system: NCI-H460; assay: Antitumor activity against human NCI-H460 cells xenografted in nude mouse assessed as inhibition of tumor weight at 6 mg/kg, iv administered once in every 2 days for 14 consecutive days relative to control; type: functional; settings: 48 h
[27] = Drug excretion in Wistar rat urine at 4 mg/kg, iv measured after 8 hrs; type: ADME, organism-based; settings: read-out: Drug excretion
[28] = Stability in rat liver microsomes at 50 uM after 5 mins in presence of NADPH by LC-MS/MS analysis; type: ADME, microsome; settings: liver microsomes, read-out: Stability
[29] = Drug uptake in Wistar rat spleen at 6 mg/kg, iv measured after 8 hrs; type: ADME, organism-based; settings: in vivo
[30] = Drug excretion in Wistar rat urine at 4 mg/kg, iv measured after 2 hrs; type: ADME, organism-based; settings: read-out: Drug excretion
[31] = Stability in rat liver microsomes at 50 uM after 210 mins in presence of NADPH by LC-MS/MS analysis; type: ADME, microsome; settings: liver microsomes, read-out: Stability
[32] = Drug uptake in Wistar rat small intestine at 6 mg/kg, iv measured after 0.5 hrs; type: ADME, organism-based; settings: in vivo
[33] = Drug uptake in Wistar rat liver at 6 mg/kg, iv measured after 1 hr; type: ADME, organism-based; settings: in vivo
[34] = Drug uptake in Wistar rat liver at 6 mg/kg, iv measured after 8 hrs; type: ADME, organism-based; settings: in vivo
[35] = Protein binding in Sprague-Dawley rat plasma at 2 uM after 4 hrs by LC-MS/MS analysis; type: ADME, cell-free; settings: read-out: PPB (converted)
[36] = MRTlast in Wistar rat at 8 mg/kg, iv; type: ADME, organism-based; settings: in vivo
[37] = test system: Rattus norvegicus; assay: Clearance in Wistar rat at 8 mg/kg, iv; type: ADME, organism-based; settings: in vivo
[38] = Drug uptake in Wistar rat large intestine at 6 mg/kg, iv measured after 1 hr; type: ADME, organism-based; settings: in vivo
[39] = AUClast in Wistar rat at 8 mg/kg, iv; type: ADME, organism-based; set-up: dose 8 mg/kg, time 0 - last, route intravenous; settings: in vivo
[40] = Drug uptake in Wistar rat lungs at 6 mg/kg, iv measured after 12 hrs; type: ADME, organism-based, Lung; settings: in vivo
[41] = Drug excretion in Wistar rat feces at 4 mg/kg, iv measured after 12 hrs; type: ADME, organism-based; settings: faeces, read-out: Drug excretion
[42] = Stability in rat plasma at 1 uM after 10 mins by LC-MS/MS analysis; type: ADME, cell-free; settings: read-out: Stability
[43] = Drug uptake in Wistar rat large intestine at 6 mg/kg, iv measured after 12 hrs; type: ADME, organism-based; settings: in vivo
[44] = MRTlast in Wistar rat at 4 mg/kg, iv; type: ADME, organism-based; settings: in vivo

Sequence of Cytochrome P450 3A4 (P08684 whole entry): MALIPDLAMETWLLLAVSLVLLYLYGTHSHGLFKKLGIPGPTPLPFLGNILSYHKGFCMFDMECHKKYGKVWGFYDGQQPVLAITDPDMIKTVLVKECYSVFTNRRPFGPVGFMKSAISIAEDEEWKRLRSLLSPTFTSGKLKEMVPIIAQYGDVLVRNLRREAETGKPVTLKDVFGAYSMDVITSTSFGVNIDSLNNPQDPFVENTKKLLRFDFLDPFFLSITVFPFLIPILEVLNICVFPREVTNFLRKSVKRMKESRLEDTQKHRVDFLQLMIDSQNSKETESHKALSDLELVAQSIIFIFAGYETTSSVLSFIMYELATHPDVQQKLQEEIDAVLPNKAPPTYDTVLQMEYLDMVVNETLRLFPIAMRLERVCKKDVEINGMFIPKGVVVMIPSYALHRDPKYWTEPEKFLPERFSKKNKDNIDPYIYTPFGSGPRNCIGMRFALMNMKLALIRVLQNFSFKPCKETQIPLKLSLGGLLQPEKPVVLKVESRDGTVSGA

[2H]/C(c1nc[nH]c1C(C)(C)C)=c1/[nH]c(=O)/c(=C/c2ccccc2)[nH]c1=O
Drug uptake [1]: 4808.8 ng/mL/g | AUC(0-t) [2]: 1330 ng·h/mL | remaining at 1 h, 50 µM [3]: 47.1% | dose excreted at 36 h [4]: 5.85% | Vd [5]: 16.4 L/kg | IC50 [6]: > 50 µM | Drug uptake [7]: 567.3 ng/mL/g | Activity [8]: 19.8 g | remaining at 40 min, 50 µM [9]: 56.5% | AUC(0-inf) [10]: 1330 ng·h/mL | Drug uptake [11]: 1756.2 ng/mL/g | Drug uptake [12]: 287.3 ng/mL/g | Drug uptake [13]: 636.5 ng/mL/g | inhibition in vivo at 6 mg/kg [14]: 56.9% | Drug uptake [15]: 3570.8 ng/mL/g | AUC [16]: 5808.24 ng·h/mL | MTD at 48 h [17]: 15 mg/kg | remaining at 10 min, 50 µM [18]: 80.6% | remaining at 2 h, 50 µM [19]: 31.1% | inhibition (INH) [20]: 57.6% | IC50 [21]: 1020 nM | Drug uptake [22]: 3836.3 ng/mL/g | dose excreted at 72 h [23]: 6.23% | Drug uptake [24]: 1188.5 ng/mL/g | Drug uptake [25]: 175.1 ng/mL/g | inhibition in vivo at 6 mg/kg [26]: 49.5% | dose excreted at 8 h [27]: 0.13% | remaining at 5 min, 50 µM [28]: 84.8% | Drug uptake [29]: 773.1 ng/mL/g | dose excreted at 2 h [30]: 0.05% | remaining at 3.5 h, 50 µM [31]: 31.5% | Drug uptake [32]: 1799.2 ng/mL/g | Drug uptake [33]: 8791.2 ng/mL/g | Drug uptake [34]: 1684.3 ng/mL/g | fraction unbound at 4 h, 2 µM [35]: 0.042 | MRT last [36]: 57.6 min | CL [37]: 64.617 mL/min/kg | Drug uptake [38]: 1421.7 ng/mL/g | AUC(0-t) [39]: 5780 ng·h/mL | Drug uptake [40]: 2023.8 ng/mL/g | dose excreted at 12 h [41]: 0.12% | remaining at 10 min, 1 µM [42]: 96.8% | Drug uptake [43]: 381 ng/mL/g | MRT last [44]: 1.76 h
